Results reported in patent publication US8242086B2, “Methods and compositions for treating disorders caused by a deficiency in a gene product of a CLN gene” (Duke University, priority 2008, dated 2012).

Experiments:
lymphoblasts = assay: Propidium iodide staining of lymphoblasts treated with GCT siRNA, with or without etoposide; assay type: cell-based, human
Description: Propidium iodide (PI) staining. Lymphoblasts (treated with GCT siRNA vs. control siRNA) were treated vs. not treated with etoposide and stained with propidium iodide (PI). The percentage of PI positive cells was counted in each.

CLN3 knockdown NT2 cells [1] = assay: Cell apoptosis rate in CLN3 knockdown NT2 cells, propidium iodide; assay type: cell-based, human; conditions: NT2 cells, 3 days post-transfection, vs wild type
Description: (§1) Cell Culture and Cell Treatment. NT2 neuronal precursor cells (ATCC cat no. CRL 1973) were grown in DMEM supplemented with 1% sodium pyruvate, L-glutamine and antibiotics and incubated in 37 C and 5% CO2 for 3 days.
(§2) siRNA knockdown of CLN3 in NT2 cells. HS1 siRNA ([…]) for CLN3 knockdown was designed using BLOCK-iT RNA™ Designer (Invitrogen). […] siRNA and scrambled universal negative control siRNA oligonucleotides were transfected into wild type NT2 cells using Lipofectamine RNAiMax™ according to manufacturer's protocol. In brief, […] HS1 RNAi duplex or scrambled siRNA universal negative control were diluted in 50 μl DMEM medium without serum. Lipofectamine™ RNAiMAX was mixed gently before use, then 1 μl was diluted in 50 μl DMEM medium. The diluted RNAi duplexes were combined with the diluted Lipofectamine RNAiMAX and incubated for 10 minutes at room temperature. […]
Determination of cell apoptosis rate in CLN3 knockdown NT2 cells. 10^6 cells transfected with CLN3 siRNA or scrambled siRNA, either treated with 50 ng/ml of GalCer (Avanti Polar Lipids, inc.) or solvent, are suspended in 100 μl PBS, incubated with 100 μl/0.5 mg/ml PI, washed, placed on slides and viewed using a fluorescence microscope. […] Cells in three fields of vision were counted. Percentage of red staining-apoptotic cells/total cells was determined.

CLN3 knockdown NT2 cells [2] = assay: Cell proliferation rate in CLN3 knockdown NT2 cells, Trypan blue dye exclusion; assay type: cell-based, human; conditions: NT2 cells, 3 days post-transfection, vs WT-NT2
Description: as §1
as §2, with “temperature. The RNAi duplex-Lipofectamine™ RNAiMAX complexes were added to cells for a final RNA concentration of 10 nM.” for “temperature.”
Determination of cell proliferation rate in CLN3 knockdown NT2 cells. 4×10^5 cells transfected with CLN3 siRNA or scrambled siRNA, and treated or not treated with 50 ng/ml GalCer, were seeded and counted with Trypan blue dye exclusion. […]
NT2 cell proliferation and apoptosis rates. An equal number of NT2 cells was initially seeded and cell number determined at different time points with Trypan blue dye exclusion. […]

CLN3 transcript = assay: Real-Time PCR validation of CLN3 knockdown in NT2 cells; assay type: cell-based, human; conditions: 3 days post-transfection, vs scrambled siRNA
Description: siRNA knockdown of CLN3 in NT2 cells. HS1 siRNA ([…]) for CLN3 knockdown was designed using BLOCK-iT RNA™ Designer (Invitrogen). […] siRNA and scrambled universal negative control siRNA oligonucleotides were transfected into wild type NT2 cells using Lipofectamine RNAiMax™ according to manufacturer's protocol. In brief, […] HS1 RNAi duplex or scrambled siRNA universal negative control were diluted in 50 μl DMEM medium without serum. Lipofectamine™ RNAiMAX was mixed gently before use, then 1 μl was diluted in 50 μl DMEM medium. The diluted RNAi duplexes were combined with the diluted Lipofectamine RNAiMAX and incubated for 10 minutes at room temperature. The RNAi duplex-Lipofectamine™ RNAiMAX complexes were added to cells for a final RNA concentration of 10 nM. Cells were harvested 96 hours post-transfection.
Real-Time PCR validation of CLN3 knockdown. To calculate the effect of CLN3 knockdown following siRNA transfection, RNA from NT2 cells, transfected either with CLN3 siRNA or with scrambled siRNA, was isolated using Trizol reagent (Invitrogen). Reverse transcription was carried out with SuperScript III First-Strand-Synthesis System (Invitrogen). Real Time-PCR was conducted on 500 ng cDNA using /SYBRGreen 10 Mix (Biorad, U.S.A) in a Biorad I-Cycler. […] To confirm CLN3 knockdown, change in fold expression compared to scrambled siRNA transfected control cells was calculated. […]

CLN8 protein = assay: Protein-lipid overlay assay, CLN8 protein; assay type: binding; conditions: lysates from normal cells, custom made sphingostrips
Description: (§3) Protein-lipid overlay assay. Membrane arrays (SPHINGOSTRIPS (Echelon Research Laboratories, Salt Lake City, Utah), or lipids were spotted on nitrocellulose membranes and dried for at least one hour. Membranes were blocked with 3% (wt/vol) Fatty Acid Free or FFA-BSA (Sigma-Aldrich, St. Louis, Mo.) in Tris-Buffered Saline Tween-20 (TBST) [150 mM NaCl/10 mM Tris.HCl (pH 8.0), and 0.1% (vol/vol) Tween-20] for 1 h at RT. Blocked membranes were incubated for 8 h at 4° C. with 2 mg/ml of total cell lysate.
(§4) Fibroblasts overexpressing CLN3p (AC1 cells) and JNCL fibroblasts were used for the GalCer-CLN3 binding assay. The membranes were then washed five times for 5 min each with TBST. After washing, membranes were incubated with anti-CLN3, CLN1, CLN2, CLN6 or CLN8-antibodies overnight at 1:1000 dilution, followed by additional washing and incubation with horseradish peroxidase-conjugated anti-rabbit IgG goat antibody for 1 h at RT. After a final washing, enhanced chemiluminescence was used to detect binding of NCL proteins to sphingolipids. Intensity values were computed with an ImageJ software program.
(§5) CLN1, CLN2, CLN6, CLN8 and CLN9 proteins also bind to lipids. […]

CLN2 protein = biological target: T1, CLN2 protein (Homo sapiens, UniProt O14773); assay: Protein-lipid overlay assay, CLN2 protein; assay type: binding; conditions: lysates from normal cells, custom made sphingostrips
T1 construct: endogenous in cells
T1 sequence (O14773 196-563): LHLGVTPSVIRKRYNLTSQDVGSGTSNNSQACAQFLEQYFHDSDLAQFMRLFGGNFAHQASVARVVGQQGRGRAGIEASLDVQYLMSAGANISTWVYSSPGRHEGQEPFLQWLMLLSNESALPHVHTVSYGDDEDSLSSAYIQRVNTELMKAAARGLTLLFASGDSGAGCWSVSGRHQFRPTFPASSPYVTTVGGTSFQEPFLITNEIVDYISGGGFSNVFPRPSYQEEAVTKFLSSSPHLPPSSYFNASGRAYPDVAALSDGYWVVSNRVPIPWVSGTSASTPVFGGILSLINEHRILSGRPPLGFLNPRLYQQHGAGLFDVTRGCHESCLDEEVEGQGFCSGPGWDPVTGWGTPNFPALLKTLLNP
Description: as §3, §4, §5

CLN6 protein = biological target: T2, CLN6 protein (Homo sapiens, UniProt Q9NWW5); assay: Protein-lipid overlay assay, CLN6 protein; assay type: binding; conditions: lysates from normal cells, custom made sphingostrips
T2 construct: endogenous in cells
T2 sequence (Q9NWW5 1-311): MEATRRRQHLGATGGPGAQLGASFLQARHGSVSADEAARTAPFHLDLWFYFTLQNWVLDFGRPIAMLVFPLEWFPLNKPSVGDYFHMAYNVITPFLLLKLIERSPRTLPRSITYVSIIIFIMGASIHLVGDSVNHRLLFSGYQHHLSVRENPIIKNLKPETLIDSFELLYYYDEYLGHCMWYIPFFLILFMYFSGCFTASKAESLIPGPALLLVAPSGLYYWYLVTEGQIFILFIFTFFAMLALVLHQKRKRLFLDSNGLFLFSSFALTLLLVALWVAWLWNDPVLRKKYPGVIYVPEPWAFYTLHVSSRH
Description: as §3, §4
CLN1, CLN2, CLN6, CLN8 and CLN9 proteins also bind to lipids. The protein-lipid overlay assay, using custom made sphingostrips, lysates from normal cells and anti-CLN1, anti-CLN2-, anti-CLN6, and anti-CLN8-antibodies, established that CLN6 and CLN8 proteins bind to GalCer, CLN1, CLN2 and CLN6p bind lysophosphatidic acid (LPA) and sulfatide, and CLN8p binds ceramide (FIG. 5).

CLN1 protein = biological target: T3, CLN1 protein (Homo sapiens, UniProt P50897); assay: Protein-lipid overlay assay, CLN1 protein; assay type: binding; conditions: lysates from normal cells, custom made sphingostrips
T3 construct: endogenous in cells
T3 sequence (P50897 28-306): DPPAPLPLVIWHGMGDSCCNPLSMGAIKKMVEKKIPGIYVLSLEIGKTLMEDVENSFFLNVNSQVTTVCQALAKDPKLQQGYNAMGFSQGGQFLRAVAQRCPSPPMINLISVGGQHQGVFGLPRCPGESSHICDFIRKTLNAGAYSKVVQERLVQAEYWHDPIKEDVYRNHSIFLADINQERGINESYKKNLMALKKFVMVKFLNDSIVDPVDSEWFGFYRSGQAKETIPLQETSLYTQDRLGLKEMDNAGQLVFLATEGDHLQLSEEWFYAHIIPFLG
Description: as §3, §4, §5

wild-type CLN3p = biological target: T4, wild-type CLN3p (Homo sapiens, UniProt Q13286); assay: Protein-lipid overlay assay, wild-type CLN3p; assay type: binding; conditions: lysate of CLN3-overexpressing cells, anti-CLN3 antibody
T4 construct: expressed in transfected cells; host or cells: fibroblasts overexpressing CLN3p (AC1 cells)
T4 sequence (Q13286 1-438): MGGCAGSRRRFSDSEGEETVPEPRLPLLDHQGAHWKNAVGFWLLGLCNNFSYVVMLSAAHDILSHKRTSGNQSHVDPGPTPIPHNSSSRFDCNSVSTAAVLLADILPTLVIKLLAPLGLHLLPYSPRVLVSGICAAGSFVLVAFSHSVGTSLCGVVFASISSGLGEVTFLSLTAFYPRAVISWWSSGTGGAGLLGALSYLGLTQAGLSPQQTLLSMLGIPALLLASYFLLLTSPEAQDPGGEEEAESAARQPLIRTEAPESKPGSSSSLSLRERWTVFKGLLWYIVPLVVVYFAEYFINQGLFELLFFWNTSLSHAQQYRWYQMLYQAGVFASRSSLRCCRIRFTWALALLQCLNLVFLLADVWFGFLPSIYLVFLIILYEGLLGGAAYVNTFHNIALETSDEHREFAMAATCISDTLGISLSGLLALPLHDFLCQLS
Description: as §3, §4
Binding of CLN3 to GalCer and sulfatide. Membranes impregnated with sphingolipids were overlaid with protein cell lysates from CLN3-overexpressing and JNCL cells. Anti-CLN3 antibody was used to evaluate binding. […] The signal for GalCer-wild-type CLN3p binding was weaker because the more polar sulfatide competes with the less polar GalCer for binding to wild-type CLN3p.

mutant CLN3p = assay: Protein-lipid overlay assay, mutant CLN3p (JNCL cell lysate); assay type: binding, human; conditions: lysate of JNCL cells, anti-CLN3 antibody
Description: as §3, §4
Binding of CLN3 to GalCer and sulfatide. Membranes impregnated with sphingolipids were overlaid with protein cell lysates from CLN3-overexpressing and JNCL cells. Anti-CLN3 antibody was used to evaluate binding. […]

Molecule: COc1cc([C@@H]2c3cc4c(cc3[C@@H](O[C@@H]3O[C@@H]5CO[C@@H](C)O[C@H]5[C@H](O)[C@H]3O)[C@H]3COC(=O)[C@H]23)OCO4)cc(OC)c1O [Etoposide, etoposide]
- effect of etoposide on apoptosis of GCT knockdown cells (lymphoblasts): augmented the effect of reduced GalCer on apoptosis

Molecule: HS1: HS1 siRNA (TCACGATTTGACTGCAACTCTG) for CLN3 knockdown (listed as DNA, chemistry not given here) [reference compound]
- increase in apoptosis (CLN3 knockdown NT2 cells [1]): 2.4 fold
- decrease in growth (CLN3 knockdown NT2 cells [2]): 58%
- decrease in CLN3 expression (CLN3 transcript): 22 fold

Molecule: ceramide
- binding of CLN8 protein to lipid (CLN8 protein): binds

Molecule: lysophosphatidic acid
- binding of CLN2 protein to lipid (CLN2 protein): bind
- binding of CLN6 protein to lipid (CLN6 protein): bind
- binding of CLN1 protein to lipid (CLN1 protein): bind

Molecule: sulfatide
- binding of CLN2 protein to lipid (CLN2 protein): bind
- binding of wild-type CLN3p to membrane spots impregnated with the lipid (wild-type CLN3p): bind strongly
- binding of mutant CLN3 to membrane spots impregnated with the lipid (mutant CLN3p): failed to do so
- binding of CLN6 protein to lipid (CLN6 protein): bind
- binding of CLN1 protein to lipid (CLN1 protein): bind
